From patent US12721856B2, “Psilocybin compositions, methods of making and methods of using the same” (priority 2021, dated 2026)
In brackets after ≈: the same amount, converted by molar mass.

Assay: Solubility in water
Assay type: physicochemical
Text: The psilocybin in the form Polymorph A or A′ has the general properties illustrated in Table 5 below: […]

CN(C)CCc1c[nH]c2cccc(OP(=O)(O)O)c12 [Psilocybin]
solubility: ~15 mg/mL (≈ 52.8 mM)
